The record followed here is patent US7659251B2, “Ligand for G-protein coupled receptor FPRL2” (priority 2004, dated 2010).

Test [1] has as its target T1, FPRL1 (Homo sapiens, UniProt P25090).
T1 construct: expressed in transfected cells; host or cells: CHO-K1 (with or without Galpha16 and apoaequorin)
T1 sequence (P25090 1-351): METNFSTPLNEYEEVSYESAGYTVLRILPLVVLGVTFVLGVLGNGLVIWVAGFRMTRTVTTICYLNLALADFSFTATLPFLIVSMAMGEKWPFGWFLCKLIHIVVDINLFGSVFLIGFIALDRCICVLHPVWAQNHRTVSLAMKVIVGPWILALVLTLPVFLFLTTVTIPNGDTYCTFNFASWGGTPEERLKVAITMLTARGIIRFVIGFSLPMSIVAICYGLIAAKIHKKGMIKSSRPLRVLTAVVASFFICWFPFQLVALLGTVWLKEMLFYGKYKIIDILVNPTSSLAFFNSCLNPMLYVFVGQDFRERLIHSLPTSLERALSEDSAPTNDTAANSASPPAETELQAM
The test can be described thus: Aequorine assay on human FPRL1 expressing cells (Example 9). To be noted: data not shown. It counts as cell-based. The procedure:
(§1) Functional responses were analyzed by recording the luminescence of aequorine in human FPRL2 and FPRL1 expressing cells following the addition of agonists or purified monoclonal antibodies.
(§2) In brief, cells were collected from plates with PBS containing 5 mM EDTA, pelleted, resuspend at 5×10^6 cells/ml in DMEM/F-12 medium containing 0.1% bovine serum albumin, incubated with 5 μM coelenterazine H (molecular probes, Inc. Eugene, Oreg.) for 4 h at room temperature and diluted in DMEM/F-12 medium at a concentration of 5×10^5 cells/ml. Cells where then mixed in an 96 wells plate with the ligands or purified monoclonal antibodies. The light emission was recorded over 60 sec using a microlumat Luminometer (EG&G Berthold, microplate luminometer LB 96V).
(§3) Each data point is in duplicate. […] Human FPRL1 expressing cells were used as negative control to Mab. Functionality of these cells has been control with Humanin.

The target of test [2] is T2, FPRL2 (Homo sapiens, UniProt P25089).
T2 sequence (P25089 1-353): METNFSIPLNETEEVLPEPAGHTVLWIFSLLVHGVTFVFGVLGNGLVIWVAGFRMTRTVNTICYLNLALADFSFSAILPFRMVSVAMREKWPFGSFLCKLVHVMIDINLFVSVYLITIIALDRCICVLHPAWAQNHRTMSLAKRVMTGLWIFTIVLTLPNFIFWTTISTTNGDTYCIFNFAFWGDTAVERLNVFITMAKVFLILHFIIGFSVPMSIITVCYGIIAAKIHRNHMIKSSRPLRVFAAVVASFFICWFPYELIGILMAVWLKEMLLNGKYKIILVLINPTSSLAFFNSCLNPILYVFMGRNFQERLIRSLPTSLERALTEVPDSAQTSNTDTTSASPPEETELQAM
The test is described as follows: Aequorine assay on human FPRL2 expressing cells (Example 9). It counts as cell-based. Also on record: expressed in transfected cells; host or cells: CHO-K1 (with or without Galpha16 and apoaequorin). To be noted: peptides 2.5 μM to 0.4 nM, Mab 500 ug/ml to 5 ug/ml; FIG. 15. The procedure: as §1, §2, §3

Test [3] has as its target T2, FPRL2. The test is described as follows: Aequorin-based assay on CHO-K1 cells expressing FPRL2, apoaequorin and Galpha16. The format is cell-based. Also on record: expressed in transfected cells; host or cells: CHO-K1 (with or without Galpha16 and apoaequorin). The note with it: for concentrations required to activate FPRL2 (calcium): FPRL2-expressing CHO-K1 cells. As for the experimental part:
Briefly, FPRL2 polypeptide-expressing clones are transfected to coexpress mitochondrial apoaequorin and Gα16. Cells are incubated with 5 μM Coelenterazine H (Molecular Probes) for 4 hours at room temperature, washed in DMEM-F12 culture medium and resuspended at a concentration of 0.5×10^6 cells/ml. Cells are then mixed with test agonist molecules and light emission by the aequorin is recorded with a luminometer for 30 sec. Results are expressed as Relative Light Units (RLU). Controls include assays using membranes isolated from cells not expressing FPRL2 polypeptide (mock transfected), in order to exclude possible non-specific effects of the candidate compound.
FPRL2 expressing clones have been obtained by transfection of CHO-K1 cells to coexpressing mitochondrial apoaequorin and Galpha16, limiting dilution and selection by northern blotting. Positive clones were used for screening with porcine spleen extracts prepared as described above. […] Briefly, cells were collected from plates in PBS containing 5 mM EDTA, pelleted and resuspended at 5×10^6 cells/ml in DMEM-F12 medium. Cells were incubated with 5 μM Coelenterazine H (Molecular Probes) for 4 hours at room temperature. Cells were then washed in DMEM-F12 medium and resuspended at a concentration of 0.5×10^6 cells/ml. Cells were then mixed with test agonist peptides or plates containing tissue extracts and the light emission was recorded for 30 sec using a Microlumat luminometer (Perlin Elmer). Results are expressed as Relative Light Units (RLU).
(§4) The human coding sequences (accession numbers AC005946, M84562 and M60626, respectively) were amplified by PCR from human genomic DNA, cloned into the pcDNA3 (Invitrogen) and pEFIN3 (Euroscreen) vectors and sequenced. The pEFIN3 constructs were transfected, using Fugene 6, into CHO-K1 cells, expressing or not Gα16 and apoaequorin. G418-resistant clones were characterized for receptor expression by Northern blotting. […] Results were expressed as relative light units (RLU) or as the percentage of the response to 20 μM ATP.
The cAMP concentrations were determined using a homogeneous time-resolved fluorescence (HTRF) kit (Cis Bio International). Briefly, cells were detached, resuspended in Krebs Ringer Hepes buffer containing 1 mM 3-Isobutyl-1-methylxanthine, and submitted to 10 μM forskolin, alone or together with increasing concentrations of agonists for 30 min at room temperature. The reaction was stopped by the successive addition of cAMP-XL665 and anti-cAMP cryptate diluted in lysis buffer. The plates were incubated for 60 min at room temperature and read on a Rubystar fluorimeter (BMG). […] A calibration curve was obtained by plotting delta F % versus cAMP concentrations. […] The aequorin-based assay was performed with or without overnight pretreatment with 100 ng/ml Pertussis toxin. […] For FPRL2 polymorphism analysis, HEK cells were transiently transfected with empty and wild-type or Asp338H is FPRL2-containing pcdna vector using calcium phosphate method. Cells were recovered 48 hours later and used for FACS or cAMP experiments.

Test [4] concerns the target T1, FPRL1. The test is described as follows: Aequorin-based assay on CHO-K1 cells expressing FPRL1. The format is cell-based. The note with it: FPRL1 expressed in CHO-K1 cells.
Description: as §4

The next test deals with T3, FPR (Homo sapiens, UniProt P21462, E346A/V101L).
T3 construct: expressed in transfected cells; host or cells: CHO-K1 (with or without Galpha16 and apoaequorin)
T3 sequence (P21462 1-350 V101L/E346A): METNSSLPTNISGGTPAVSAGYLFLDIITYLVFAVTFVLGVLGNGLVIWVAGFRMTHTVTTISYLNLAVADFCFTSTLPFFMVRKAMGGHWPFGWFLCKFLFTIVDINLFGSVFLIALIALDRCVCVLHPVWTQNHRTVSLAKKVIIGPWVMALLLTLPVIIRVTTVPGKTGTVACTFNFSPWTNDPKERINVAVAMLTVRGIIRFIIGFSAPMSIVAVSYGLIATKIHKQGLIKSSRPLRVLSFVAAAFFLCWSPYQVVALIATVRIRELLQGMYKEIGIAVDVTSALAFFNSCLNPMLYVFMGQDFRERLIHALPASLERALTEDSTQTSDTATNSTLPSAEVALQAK
The test is described as follows: Aequorin-based assay on CHO-K1 cells expressing FPR. It counts as cell-based. The note with it: FPR expressed in CHO-K1 cells.
Description: as §4

Test [5] addresses T2, FPRL2. The test is described as follows: Saturation and competition binding on FPRL2-expressing CHO-K1 cells, tracer F2L-[125I]Tyr. Also on record: expressed in transfected cells; host or cells: CHO-K1. The note with it: for competition for FPRL2 binding: up to concentrations of 3 μM, data not shown. The procedure: FPRL2, FPRL1 and FPR-expressing CHO-K1 cells were plated in 24 wells plates (200,000 cells per well for FPRL2, and 100,000 cells per well for the two other receptors). The next day, the cells were washed twice with a KRH buffer containing 280 mM saccharose and, for FPRL1 and FPR, 0.1 % NaN3. […] Cells were washed twice with ice cold buffer, total radioactivity was recovered with 1 M […] and counted in a gamma counter for […]

For “Humanin: Humanin (HN(N)) peptide (Phoenix Pharmaceuticals), disclosed as a ligand for FPRL2 and FPRL1 [reference compound]”, the “activation of human FPRL1 expressing cells” value with FPRL1 [1] is on record as “activates”. Besides, the “activation of human FPRL2 expressing cells” value with FPRL2 [2] is “activates”.

With Pertussis toxin, the “effect of pretreatment on F2L calcium signaling” value at FPRL2 [3] (100 ng/ml overnight pretreatment, FIG. 11G) is reported as “totally inhibited”.

On to `CSCC[C@H](NC(=O)[C@@H](NC(=O)[C@H](CCSC)NC(=O)[C@H](Cc1ccc(O)cc1)NC(=O)[C@H](CCCCN)NC(=O)[C@@H](N)Cc1c[nH]c2ccccc12)C(C)C)C(N)=O` [WKYMVM], for which the “concentrations active on FPRL1” value at FPRL1 [4] is given as “low nanomolar concentrations”. The “concentrations active on FPR” value on FPR was “low nanomolar concentrations”. For the same molecule, the “competition for FPRL2 binding” value at FPRL2 [5] is “did not compete”. At FPRL2 [3], the “concentrations required to activate FPRL2 (calcium)” value is “micromolar concentrations”.

On to `CSCC[C@H](NC=O)C(=O)N[C@@H](CC(C)C)C(=O)N[C@@H](Cc1ccccc1)C(=O)O` [FMLP, formyl-methionine-leucyl-phenylalanine], for which, on FPRL2 [5], the “competition for FPRL2 binding” value is reported as “did not compete”. Also, the “activity on FPRL2” value at FPRL2 [3] (FPRL2-expressing cells) was “inactive”.

On to `CSCC[C@H](NC(=O)[C@H](Cc1ccc(O)cc1)NC(=O)[C@H](CCCCN)NC(=O)[C@@H](N)Cc1c[nH]c2ccccc12)C(=O)N[C@H](C(=O)N[C@H](CCSC)C(N)=O)C(C)C` [WKYMVm], for which, on FPRL1 [4], the “concentrations active on FPRL1” value is given as “low nanomolar concentrations”. Besides, at FPR, the “concentrations active on FPR” value is reported as “low nanomolar concentrations”. Also, at FPRL2 [5], the “competition for FPRL2 binding” value was “did not compete”. The “concentrations required to activate FPRL2 (calcium)” value at FPRL2 [3] is reported as “micromolar concentrations”.

With “NSLFGSVETWPWQVL [F2L[7-21], truncated F2L variant lacking the first six aminoacids]”, the “activity in binding assay” value with FPRL2 [5] (not shown) is “totally inactive”. For the same molecule, the “activity in aequorin assay” value with FPRL2 [3] (FIG. 11H) is “totally inactive”.
